Laboratory results from patent US20160304573A1, “FIBROMODULIN PEPTIDE” (The Regents of the University of California, priority 2010, published 2016).

Columns and labels:
[1] = test system: connective tissue growth factor (CTGF) expression; assay: CTGF expression and cell aggregation in Rat-2 cells, confocal staining; assay type: cell-based
Experimental: Results of exemplary tests on each of FMOD and FMOD-P, alone or in combination with TGF-β on CTGF expression are shown in FIGS. 28A-28D. In these tests, 4,000 cells/well passage 18 Rat-2 cells were seeded in 8-well chamber slices in DMEM medium with 10% FBS. After 6 h adhesion, fresh DMEM medium with 0.5% FBS was employed for overnight serum starvation and then treatment media added. Treatment media were changed after 24 h. Cells were fixed and staining at 48 h. Photos were captured at 630× magnifications using a confocal microscope. In these figures, the cells were stained for CTGF (connective tissue growth factor, a factor involved in cell proliferation, migration and matrix production) or DAPI (4′,6-diamidino-2-phenylindole a fluorescent stain that binds strongly to DNA-used for nuclear staining). Merged images showing both CTGF and DAPI staining are also shown.

Rat-2 cells [2] = assay: H&E morphology of Rat-2 cells; assay type: cell-based
Experimental: Exemplary tests were performed to better delineate cell morphology.

[3] = test system: α-smooth muscle actin (α-SMA) expression; assay: α-SMA expression staining; assay type: cell-based; conditions: mono-treatment (200 nM FMOD or 100 pM TGF-β1); FIGS. 25B, 25C
Experimental: Exemplary tests on effects of FMOD and TGF-β or FMOD peptides and TGF-β on α-SMA expression were performed and shown in FIGS. 25A-25D. Expression levels of α-SMA, which is a marker for the transition of fibroblasts to myofibroblasts, were measured and presented in staining in these figures.

TGF-β1 [4] = target: T1, TGF-β1 (Homo sapiens, UniProt P01137); assay: TGF-β1 binding to biotinylated FMOD/FMOD peptides on avidin resin; non-bound TGF-β read by Mv1Lu growth inhibition (MTT); conditions: ratios 1:1, 10:1, 100:1, 1000:1 to TGF-β; overnight 4° C.; FIG. 13
Experimental: (§1) FMOD (whole protein) (SEQ ID NO:1), FMOD peptides and control protein BSA were biotinylated. While, the biotinylated proteins and peptides were bound to commercial available Piece Monomeric Avidin UltraLink Resin (Piece). The amounts of each test peptides/proteins are 1:1, 10:1, 100:1 and 1000:1 to TGF-βs, respectively. After washing out the non-bound residues, appropriate amount TGF-βs (based on the primary test assay) were added to the resin at 4° C. After overnight binding, non-bound TGF-βs were collected, followed by filter sterilization. Then, the TGF-βs residue were diluted 100 times in DEME-0.5% FBS to ensure the concentration was located in the linear region of TGF-βs on Mv1Lu proliferate inhibition.
(§2) Diluted TGF-βs was added to overnight serum-starved Mv1Lu, and fresh TGF-βs media were added for another 24 hour before MTT assay. Samples with no TGF-βs added were employed as controls.

TGF-β2 = target: T2, TGF-β2 (Homo sapiens, UniProt P61812); assay: TGF-β2 binding to biotinylated FMOD/FMOD peptides on avidin resin; non-bound TGF-β read by Mv1Lu growth inhibition (MTT); conditions: ratios 1:1, 10:1, 100:1, 1000:1 to TGF-β; FIG. 14
T2 sequence (P61812 303-414 limits assumed): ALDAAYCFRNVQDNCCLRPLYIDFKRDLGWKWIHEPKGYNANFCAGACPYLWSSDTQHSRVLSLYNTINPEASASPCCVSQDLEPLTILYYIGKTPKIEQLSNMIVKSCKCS
Experimental: as §1, §2

TGF-β3 = target: T3, TGF-β3 (Homo sapiens, UniProt P10600); assay: TGF-β3 binding to biotinylated FMOD/FMOD peptides on avidin resin; non-bound TGF-β read by Mv1Lu growth inhibition (MTT); conditions: ratios 1:1, 10:1, 100:1, 1000:1 to TGF-β; FIG. 15
T3 sequence (P10600 301-412 limits assumed): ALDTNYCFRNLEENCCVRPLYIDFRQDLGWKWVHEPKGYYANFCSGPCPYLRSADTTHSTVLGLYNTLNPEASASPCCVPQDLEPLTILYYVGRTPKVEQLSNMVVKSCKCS
Experimental: as §1, §2

Rat-2 cells [5] = assay: Rat-2 cell migration by scratching method; assay type: cell-based; conditions: alone (200 nM FMOD or 100 pM TGF-β), 24 hours
Experimental: 1×10^6 cell/well Rat-2 cells were seeded in 6-well plated with 3 ml DMEM-10% FBS. After 6 hours for adhesion, fresh DMEM-0.5% FBS medium was changed for serum-starving overnight. After pre-warmed DMEM rinsing, four wounds (each 1 mm wide; two horizontal and two vertical) were scratched employing a 1-ml tip for each treatment group. Cells were rinsed by DMEM for three times, followed by incubation with treatment medium [DMEM-0.5 FBS containing 100 pM (2.5 ng/ml) TGF-β1 (SEQ ID NO:64) or -β3 (SEQ ID NO:66) w/o 200 nM (11.2 μg/ml) FMOD (SEQ ID NO:1)] for 24 hours. Photos were captured at both 0-h and 24-h after the scratching. The unclosed distance was measured and quantified as an average gap (A) and migration index (B). Similar results were reproduced in four independent experiments. The scale bar in (A) equal to 100 The asterisks in (B) present P<0.05.
(§3) Similar to FMOD (whole protein), the effect of FMOD peptides and/or TGF-β on cell migration was also evaluated by scratching method (FIGS. 18C and 25D). At the same time, cell migration/invasion in Matrigel was documented at 100× magnificent after 24 hour treatment and quantitated using DAPI nuclear staining (100 rather than 200× magnification was used because one group's invasion is quite low) (see the results in FIG. 20A and DAPI pictures in FIG. 20B). Passage 18 Rat-2 cells (20,000 cells/well) were used for the test under the treatment of 100 pM TGF-β1 (SEQ ID NO:64)/133 (SEQ ID NO:66) with/without 200 nM FMOD-F07-40C in DMEM-0.5% FBS.

[6] = target: T4, Bovine serum albumin (BSA) (bovine, UniProt P02769 25-607); assay: biotinylated protein on avidin resin, unbound TGF-β read by Mv1Lu growth inhibition (MTT)
T4 construct: also called control BSA; control protein BSA
Experimental: as §1, §2

Rat-2 cells [7] = assay: Rat-2 cell migration/invasion in Matrigel, DAPI nuclear staining; assay type: cell-based; conditions: alone (200 nM FMOD or peptide, or 100 pM TGF-β), 24 hour treatment
Experimental: Cell migration/invasion in Matrigel was documented at 200× magnificent after 24 hour treatment and quantitated using DAPI nuclear staining (results shown in FIG. 19A and repeat results in FIGS. 26B and 26C; DAPI pictures are shown in FIG. 19D).
as §3
Passage 18 Rat-2 cells (20,000 cells/well) were used for the test under the treatment of 100 pM TGF-β1/β3 with/without 200 nM FMOD-F06-40C in DMEM-0.5% FBS (FIG. 20C).

TGF-β1 [8] = target: T1, TGF-β1; assay: ELISA analysis of binding with TGF-β1; conditions: BSA as negative control; FIG. 3
Description: Bovine serum albumin (BSA) was used as negative control.
SUMO-CAT from the recombinant bacteria harboring control plasmid pET_SUMO/CAT was used as negative control. To the knowledge of inventors, the TGF-binding sites within FMOD have not been reported.

T1 sequence (P01137 279-390 limits assumed): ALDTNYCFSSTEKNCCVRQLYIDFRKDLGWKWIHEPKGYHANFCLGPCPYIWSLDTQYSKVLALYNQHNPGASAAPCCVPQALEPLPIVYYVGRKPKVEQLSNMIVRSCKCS
T4 sequence (P02769 25-607 limits assumed): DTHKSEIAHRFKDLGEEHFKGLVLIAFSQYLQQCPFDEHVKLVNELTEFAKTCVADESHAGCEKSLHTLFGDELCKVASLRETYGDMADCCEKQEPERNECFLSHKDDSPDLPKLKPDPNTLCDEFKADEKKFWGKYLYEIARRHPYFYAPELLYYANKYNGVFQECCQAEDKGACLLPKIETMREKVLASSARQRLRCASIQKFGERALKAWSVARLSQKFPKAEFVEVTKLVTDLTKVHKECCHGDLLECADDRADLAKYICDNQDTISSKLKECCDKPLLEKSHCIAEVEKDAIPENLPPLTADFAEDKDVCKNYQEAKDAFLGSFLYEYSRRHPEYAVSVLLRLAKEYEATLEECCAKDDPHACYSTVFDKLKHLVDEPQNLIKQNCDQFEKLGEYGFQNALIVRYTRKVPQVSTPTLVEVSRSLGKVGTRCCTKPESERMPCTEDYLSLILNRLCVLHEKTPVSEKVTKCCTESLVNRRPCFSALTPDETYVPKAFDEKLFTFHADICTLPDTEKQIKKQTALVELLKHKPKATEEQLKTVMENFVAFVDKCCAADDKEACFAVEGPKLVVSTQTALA

With TGF-β1: TGF-β isoform, SEQ ID NO:64 the CTGF expression ([1]; mono-treatment (200 nM FMOD or 100 pM TGF-β1), 48 h, FIGS. 21B, 21C) was “moderate CTGF expression”, the “CTGF expression (green fluorescence)” value ([1]; mono-treatment, another set of similar studies, FIG. 24) was “increases expression of CTGF” and the “nodule-like cell aggregations/condensations, number” value (Rat-2 cells [2]; 100 pM TGF-β1 alone, 8-well chamber slides) was “< one”. For the same molecule, the “cell aggregation/density (H&E)” value (Rat-2 cells [2]; mono-treatment (200 nM FMOD or 100 pM TGF-β1), relative to controls) was “slightly increased the Rat-2 cell density” and the α-SMA staining [3] was “moderate α-SMA staining”.

With “Bovine serum albumin [BSA, reference compound]” the TGF-β1 binding (TGF-β1 [4]) was “minimal TGF-β1 binding except at very high ratios”, the TGF-β2 binding (TGF-β2) was “minimal TGF-β2 binding” and the TGF-β3 binding (TGF-β3) was “did not bind to TGF-β3 even at high ratios”.

B1: TGF-β3 (ligand)
chain: NCCVRPLYIDFRQDLGWKWVHEPKGYYANFCSGPCPYLRSADTTHSTVLGLYNTLNPEASASPCCVPQDLEPLTILYYVGRTPKVEQLSNMVVKSCKCS
In the case of B1, the “cell migration, scratch” value (Rat-2 cells [5]) is reported as “inhibited migration”, the binding result [6] is reported as “no binding” and the “cell migration/invasion in Matrigel” value (Rat-2 cells [7]) is reported as “inhibited migration”.

B2: native extract bovine FMOD: native extract bovine FMOD, comparator in ELISA (protein)
chain: QYEEDSHWWFQFLRNQQSTYDDPYDPYPYEPYEPYPYGGEEGPAYAYGSPPQPEPRDCPQECDCPPNFPTAMYCDNRNLKYLPFVPSRMKYVYFQNNQISSIQEGVFDNATGLLWIALHGNQITSDKVGKKVFSKLRHLERLYLDHNNLTRIPSPLPRSLRELHLDHNQISRVPNNALEGLENLTALYLHHNEIQEVGSSMKGLRSLILLDLSYNHLRKVPDGLPSALEQLYLEHNNVFSVPDSYFRGSPKLLYVRLSHNSLTNNGLASNTFNSSSLLELDLSYNQLQKIPPVSTNLENLYLQGNRINEFSISSFCTVVDVMNFSKLQVLRLDGNEIKRSAMPADAPLCLRLASLIEI
With B2 the “binding with TGF-β1 in ELISA assay” value (TGF-β1 [8]) was “able to bind with TGF-β1”.
